Source: patent US20230265069A1, “Small Molecule Inhibitors That Block the Budding of Enveloped Viruses” (priority 2020, published 2023)

Key:
HSV-2 [1] = test: HSV-2 release from infected Vero cells, plaque assay; conditions: for Titer of HSV-2 Media 48 h / Titer of HSV-2 Media, 24 h / Total Titer HSV-2 Media + Cell Lysate, 24 h: Vero cells
[2] = biological target: T1, Tsg101-UEV (Tsg101 amino acids 1-145) (Homo sapiens, UniProt Q99816); test: Fluorescence thermal shift (FTS) assay, binding to Tsg101-UEV; conditions: for Thermal shift (Tm shift) of Tsg101-UEV caused by compound: FTS dose response, result in words; for Tm shift of Tsg101 in the FTS assay on addition of DTT: with reducing agent DTT
T1 sequence (Q99816 1-145): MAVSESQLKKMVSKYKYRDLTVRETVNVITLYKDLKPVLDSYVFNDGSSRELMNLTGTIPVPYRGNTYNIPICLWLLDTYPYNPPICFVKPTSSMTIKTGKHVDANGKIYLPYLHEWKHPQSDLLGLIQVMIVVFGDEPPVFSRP
Protocol: The fluorescence-based thermal shift assay is based on the observation that a protein unfolds upon heating, exposing the hydrophobic residues within its tertiary structure. The unfolding temperature (Tm) is determined by the protein's primary sequence and solution environment. The FTS assay uses a fluorescent dye sensitive to a hydrophobic environment to probe protein stability and its modulation by small molecule ligands. The dye has a low fluorescence quantum yield when in a polar environment. Once in contact with the hydrophobic core normally buried within a folded protein that has become exposed during the thermal unfolding (melting) process, the quantum yield of the dye increases, thus providing a reporting signal. Furthermore, a protein's stability can be affected by ligand binding, resulting in an increase or decrease in its melting temperature. FTS assay uses the Tm shift upon binding of a ligand to identify hit compounds for drug discovery.
We screened chemical compounds using a fluorescence thermal shift (FTS) assay (27, 28) to identify small molecules that bind directly to a truncated form of Tsg101 (amino acids 1-145) which contains the Ubiquitin E2 variant (UEV) ubiquitin-binding domain (FIG. 1A, 1B, 1C). […] This truncated Tsg101, called Tsg101-UEV, was used because full-length Tsg101 has significant solubility issues in aqueous solution. Tsg101 is an adaptor protein and thus lacks a readily deployable functional assay, making FTS a tractable approach to identify interacting compounds. FTS monitors protein thermal denaturation using SYPRO® Orange, a dye which fluoresces when bound to hydrophobic surfaces, which allows monitoring of the changes in hydrophobic surface exposure during protein denaturation (27). Since ligand binding affects protein thermal stability, it can be detected through modulation of protein thermal denaturation (melting) as a shift in melting temperature (Tm). Tsg101-UEV has a well-defined melting curve suitable for FTS. We used the FTS assay to identify compounds that bind to Tsg101-UEV.
Fluorescence thermal shift (FTS) screening to identify small molecule binding to Tsg101-UEV. FTS using thermal shift elicited by the small molecule binding effect to protein stability. FTS monitors protein thermal denaturation using environment-sensitive dye Sypro® Orange which fluoresces when bound to hydrophobic surfaces, taking advantage of the changes in hydrophobic surface exposure in protein denaturation. Discovery of small molecule binding to target protein utilizes the observation that ligand binding affects protein thermal stability, and therefore can be detected through a shift in the protein's thermal denaturation (melting) temperature (Tm). We have employed FTS to reveal changes in thermodynamic properties of Tsg101 elicited by its interaction with a small molecule. […] A fluorescence dye Sypro® Orange (Invitrogen) was used for assay detection. The dye is excited at 473 nm and has a fluorescence emission at 610 nm. The dye binds to hydrophobic regions of a protein that are normally buried in a native protein structure. […] The Tsg101 fragment was premixed at a concentration of 2 μM with a 5× concentration of Sypro® Orange in HEPES buffer (100 mM HEPES, 150 mM NaCl, pH 7.5). Then 10 μl of the protein-dye mix was added to an assay plate and 10 to 50 nanoliters of compound, equal to 10 to 50 μM, were added with an acoustic transfer robot Echo550 (Labcyte, CA).

Vero cells = test: Vero cell viability, 96 AQueous One Solution cell proliferation assay; format: cell-based
Text: Drug potency and cell toxicity. […] Cell toxicity experiments were repeated twice.

HIV-1 = conditions: 293T cells in culture; cited from earlier work
DHPH = test: FTS assay on unrelated protein DHPH; conditions: specificity control
Text: (§1) Fluorescence thermal shift (FTS) screening to identify small molecule binding to Tsg101-UEV. FTS using thermal shift elicited by the small molecule binding effect to protein stability. FTS monitors protein thermal denaturation using environment-sensitive dye Sypro® Orange which fluoresces when bound to hydrophobic surfaces, taking advantage of the changes in hydrophobic surface exposure in protein denaturation. Discovery of small molecule binding to target protein utilizes the observation that ligand binding affects protein thermal stability, and therefore can be detected through a shift in the protein's thermal denaturation (melting) temperature (Tm). We have employed FTS to reveal changes in thermodynamic properties of Tsg101 elicited by its interaction with a small molecule. The recombinant Tsg101 fragment (amino acids 1-145), prepared as described above in Materials and Methods (but without label) has a thermal unfolding profile suitable for using FTS as a primary screen assay in HTS. A fluorescence dye Sypro® Orange (Invitrogen) was used for assay detection. The dye is excited at 473 nm and has a fluorescence emission at 610 nm. The dye binds to hydrophobic regions of a protein that are normally buried in a native protein structure. […] Fluorescence was detected on a real-time PCR machine CFX384 (Bio-Rad Laboratories).

ENO1 = ENO1 (Homo sapiens, UniProt P06733); test: FTS assay on unrelated protein ENO1; conditions: specificity control
Chain of ENO1 (P06733 whole entry): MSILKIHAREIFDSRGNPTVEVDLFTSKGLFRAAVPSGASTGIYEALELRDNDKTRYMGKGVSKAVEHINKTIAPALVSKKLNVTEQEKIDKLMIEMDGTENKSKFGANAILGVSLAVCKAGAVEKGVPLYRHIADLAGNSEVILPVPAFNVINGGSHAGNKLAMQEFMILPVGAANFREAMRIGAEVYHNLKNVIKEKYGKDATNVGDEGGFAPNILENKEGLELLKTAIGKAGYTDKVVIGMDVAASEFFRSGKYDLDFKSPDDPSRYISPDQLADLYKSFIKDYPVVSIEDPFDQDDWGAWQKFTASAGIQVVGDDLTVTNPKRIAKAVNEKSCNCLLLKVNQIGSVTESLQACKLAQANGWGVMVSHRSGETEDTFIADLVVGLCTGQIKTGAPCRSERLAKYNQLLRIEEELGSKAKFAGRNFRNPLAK
Text: as §1

MEK4 = biological target: T2, MEK4 (Homo sapiens, UniProt P45985); test: FTS assay on unrelated protein MEK4; conditions: specificity control
T2 sequence (P45985 1-399): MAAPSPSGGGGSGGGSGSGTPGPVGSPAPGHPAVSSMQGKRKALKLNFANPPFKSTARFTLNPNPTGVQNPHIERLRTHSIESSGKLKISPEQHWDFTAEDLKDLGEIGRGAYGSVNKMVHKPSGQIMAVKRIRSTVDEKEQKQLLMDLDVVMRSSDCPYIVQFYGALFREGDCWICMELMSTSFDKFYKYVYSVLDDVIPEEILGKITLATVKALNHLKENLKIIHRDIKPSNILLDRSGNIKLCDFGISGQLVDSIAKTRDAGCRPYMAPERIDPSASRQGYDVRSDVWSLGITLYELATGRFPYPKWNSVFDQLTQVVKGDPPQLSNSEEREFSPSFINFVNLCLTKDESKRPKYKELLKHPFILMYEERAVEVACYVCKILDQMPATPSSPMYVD
Text: as §1

HSV-1 = HSV-1 release from infected Vero cells, plaque assay
HSV-2 [3] = test: Transmission electron microscopy of HSV-2 infected Vero cells, particle counts; conditions: 105 tenatoprazole, 24 h, HSV-2, 80 cells
Protocol: Vero cells grown on glass cover slips were infected with HSV-2 at MOI of 0.1 pfu/cell for 2 h and then treated for 24 h with 105 μM tenatoprazole or vehicle control.
Transmission electron Microscopy. Vero cells on glass cover slips were infected with HSV-2 at a MOI of 0.1 for two hours. Then 105 μM of tenatoprazole or 18 μM Ilaprazole was added and cells incubated for 24 hours. Tissue samples were fixed in 0.1 M sodium cacodylate buffer pH 7.3 containing 2% paraformaldehyde and 2.5% glutaraldehyde and post-fixed with 2% osmium tetroxide 427 in unbuffered aqueous solution. The samples were rinsed with distilled water, en bloc stained with 3% uranyl acetate, rinsed with distilled water, dehydrated in ascending grades of ethanol, transitioned with propylene oxide, embedded in the resin mixture of Embed 812 kit and cured in a 60° C. oven. Samples were sectioned on a Leica Ultracut UC6 ultramicrotome. 1 μm thick sections were collected and stained with Toluidine Blue O and 70 nm sections were collected on 200 mesh copper grids; thin sections were stained with uranyl acetate and Reynolds lead citrate. Transmission electron microscopy (TEM) was performed on a FEI Tecnai Spirit G2.

[4] = HSV-2 infected Vero cells, virus released into media, plaque assay
[5] = Tenatoprazole 52 μM, Vero cells
[6] = Tenatoprazole 79 μM, Vero cells
[7] = Tenatoprazole 105 μM, Vero cells
[8] = Tenatoprazole 131 μM, Vero cells
[9] = Tenatoprazole 157 μM, Vero cells

Pantoprazole
EC50 (μM) Inhibition of HSV-2 Budding at 24 h (HSV-2 [1]; [4]): inactive | Thermal shift (Tm shift) of Tsg101-UEV caused by compound [2]: smallest thermal shift | Tm shift of Tsg101 in the FTS assay on addition of DTT [2]: abolishes the Tm shift

Rabeprazole
EC50 (μM) Inhibition of HSV-2 Budding at 24 h (HSV-2 [1]; [4]): inactive | Tm shift of Tsg101 in the FTS assay on addition of DTT [2]: abolishes the Tm shift

Tenatoprazole
Cell toxicity at concentrations that block virus release (Vero cells; 24 h, result in words): nontoxic | Viability of OD 490 nm, 24 h (Vero cells; Tenatoprazole 52 μM): 1.724 | Viability of OD 490 nm, 24 h (Vero cells; Tenatoprazole 60 μM): 1.759 | Viability of OD 490 nm, 24 h (Vero cells; Tenatoprazole 79 μM): 1.742 | Viability of OD 490 nm, 24 h (Vero cells; Tenatoprazole 105 μM): 1.777 | Viability of OD 490 nm, 24 h (Vero cells; Tenatoprazole 131 μM): 1.714 | Viability of OD 490 nm, 24 h (Vero cells; Tenatoprazole 200 μM): 0.872 | Inhibition of release of infectious HIV-1 from 293T cells (earlier report) (HIV-1): quantitatively inhibit | Tm shift of DHPH (DHPH): did not observe a Tm shift | Tm shift of ENO1 (ENO1): did not observe a Tm shift | Tm shift of MEK4 (MEK4): did not observe a Tm shift | Titer of HSV-1 Media, 48 H (HSV-1; [5]): 1.4E+07 | Titer of HSV-1 Media, 24 h (HSV-1; [5]): 2.90E+05 | Titer of HSV-1 Media, 48 H (HSV-1; [6]): 8.0E+06 | Titer of HSV-1 Media, 24 h (HSV-1; [6]): 1.30E+05 | Titer of HSV-1 Media, 48 H (HSV-1; [7]): 5.3E+05 | Titer of HSV-1 Media, 24 h (HSV-1; [7]): 5.40E+04 | Titer of HSV-1 Media, 48 H (HSV-1; [8]): 3.5E+04 | Titer of HSV-1 Media, 24 h (HSV-1; [8]): 2.40E+03 | Titer of HSV-1 Media, 48 H (HSV-1; [9]): 1.0E+02 | Titer of HSV-1 Media, 24 h (HSV-1; [9]): 1.30E+02 | Drop of HSV-1 in released infectious virus (HSV-1; Vero cells, 24 hours after infection): 3 log | Duration of inhibition of virus release (HSV-1; against either virus (HSV-1, HSV-2), data not shown): began to fall off after 48 h | EC50 (HSV-1; read-out: EC50, inhibition of HSV-1 release, Vero cells, 24 h, range stated jointly for HSV-1 and HSV-2): 48 to 80 µM | Titer of HSV-2 Media 48 h (HSV-2 [1]; Tenatoprazole 52 μM): 1.30E+06 | Titer of HSV-2 Media, 24 h (HSV-2 [1]; Tenatoprazole 52 μM): 6.50E+04 | Total Titer HSV-2 Media + Cell Lysate, 24 h (HSV-2 [1]; Tenatoprazole 52 μM): 4.00E+06 | Titer of HSV-2 Media 48 h (HSV-2 [1]; Tenatoprazole 60 μM): 5.60E+04 | Titer of HSV-2 Media, 24 h (HSV-2 [1]; Tenatoprazole 60 μM): 1.00E+03 | Total Titer HSV-2 Media + Cell Lysate, 24 h (HSV-2 [1]; Tenatoprazole 60 μM): 2.30E+04 | Titer of HSV-2 Media 48 h (HSV-2 [1]; Tenatoprazole 79 μM): 4.80E+03 | Titer of HSV-2 Media, 24 h (HSV-2 [1]; Tenatoprazole 79 μM): 2.50E+02 | Total Titer HSV-2 Media + Cell Lysate, 24 h (HSV-2 [1]; Tenatoprazole 79 μM): 1.50E+03 | Titer of HSV-2 Media 48 h (HSV-2 [1]; Tenatoprazole 105 μM): 1.80E+02 | Titer of HSV-2 Media, 24 h (HSV-2 [1]; Tenatoprazole 105 μM): 0.00E+00 | Total Titer HSV-2 Media + Cell Lysate, 24 h (HSV-2 [1]; Tenatoprazole 105 μM): 6.00E+02 | Titer of HSV-2 Media, 24 h (HSV-2 [1]; Tenatoprazole 131 μM): 0.00E+00 | Total Titer HSV-2 Media + Cell Lysate, 24 h (HSV-2 [1]; Tenatoprazole 131 μM): 3.00E+02 | EC50 (HSV-2 [1]; read-out: EC50 (μM) Inhibition of HSV-2 Budding at 24 h, HSV-2 infected Vero cells, virus released into media, plaque assay): 84 µM | Thermal shift (Tm shift) of Tsg101-UEV caused by compound [2]: dose-dependent shift in the Tm | Tm shift of Tsg101 in the FTS assay on addition of DTT [2]: abolishes the Tm shift | Average number of virus particles in the nucleus (HSV-2 [3]): 31 particles | Virus particles in the cytoplasm (HSV-2 [3]): did not detect virus particles
